According to US7507739B2, “6-[(substituted)phenyl]triazolopyrimidines as anticancer agents” (Wyeth, priority 2003, dated 2009):
Marks after values point to notes of the source that are not given here.

Key:
[1] = test system: HL-60 cells; assay: MTS cytotoxicity test with HL-60 cells; format: cell-based; conditions: Homo sapiens; HL-60 cells, MTS; read-out: IC50 HL-60
Excerpt: (§1) Human cancer cell lines, unless otherwise noted, are obtained from the American Type Culture Collection (Rockville, Md.). The following drug-sensitive parental cell lines, and their derived drug-resistant counterparts, are obtained from the originators as listed: (a) S1 (parental line from a subclone of human colon carcinoma line LS174T) and derived S1-M1-3.2 (herein called S1-M1) which expresses the MXR drug transporter protein, are provided by Dr. L. Greenberger, Wyeth Research (Rabindran, S. K., He, H., Singh, M., Brown, E., Collins, K. I., Annable, T., and Greenberger, L. M. Reversal of a novel multidrug resistance mechanism in human colon carcinoma cells by fumitremorgin C. Cancer Res., 58:5850-5858,1998); (b) parental HL-60 human promyelocytic leukemia line and derived HL-60/ADR, which expresses the MRP1 drug transporter protein, are provided by Dr. M. Center, University of Kansas (McGrath, T., and Center, M. S. Adriamycin resistance in HL60 cells in the absence of detectable P-glycoprotein. Biochem. Biophys. […] J. Biol. Chem., 261: 7762-7770,1986) via Dr. L. Greenberger, Wyeth Research.
(§2) The assay, which is sold in kit form by Promega (Madison, Wis.; CellTiter 96 AQueous Non-Radioactive Cell Proliferation Assay), is based on the conversion by viable cells, but not by dead cells, of the tetrazolium salt, MTS (3-(4,5-dimethylthiazol-2-yl)-5-(3-carboxymethoxyphenyl)-2-(4-sulphophenyl)-2H-tetrazolium, inner salt), into a water-soluble colored formazan which is detected by spectrophotometry. Compounds are tested at nine concentrations, in order to determine IC50 values. For the test procedure, cells are harvested by trypsinization (or, in the case of non-adherent cells, by simple resuspension), washed, counted and distributed to wells of 96-well flat-bottom microtiter plates at 1000 cells per well in 200 μL of medium. In addition, one row of wells on a separate plate received cells as above (“time 0” plate). All plates are incubated at 37° in humidified 5% CO2 in air for about 24 hr.
(§3) On day 2, compounds for test are diluted and added to wells. Compounds are dissolved in DMSO at 10 mg/mL. For each compound, nine serial 2-fold dilutions are prepared in DMSO. Ten μL of each dilution in DMSO is transferred to 100 μL of medium, mixed well, and then 5 μL of this dilution is transferred in quadruplicate to wells containing cells. […] Plates are returned to the incubator for three days. At the time of drug addition to the experimental plates, the MTS assay is run on the “time 0” plate. This produced the “time 0 MTS value” which is related to the number of viable cells per well at the time of drug addition.
(§4) After three days of culture with test compounds (day 5 overall), the MTS assay is done on all wells of the experimental plates. The absorbance values of the quadruplicate sample wells are averaged and divided by the average of the “time 0” values. […] The nine values for each compound are plotted against concentration, and the concentration that produced a relative color yield half way between the maximum and minimum is taken as the IC50 value.
(§5) HL-60/ADR cells overexpress the multidrug resistance protein MRP1 which mediates resistance to some chemotherapeutics (Gottesman, M. M., Fojo, T., and Bates, S. E. Multidrug resistance in cancer: role of ATP-dependent transporters. Nature Rev. Cancer, 2: 48-58, 2002). The IC50 values of representative examples of this invention, as well as reference compounds, on HL-60/ADR are compared to values on the sensitive parental HL-60 line.

[2] = test system: KB-8-5 cells; assay: MTS cytotoxicity test with KB-8-5 cells (moderate P-glycoprotein); format: cell-based, human; conditions: for IC50: Homo sapiens, KB-8-5 cells, MTS, read-out: IC50 KB 8.5; for Ratio 8.5/KB: IC50 on KB 8.5 cells/IC50 on KB cells
Excerpt: as §1, §2, §3, §4
(§6) The KB lines express different amounts of the P-glycoprotein (MDR1) membrane pump which produces resistance to the action of many cytotoxic compounds, including paclitaxel and vincristine. The parental KB line expresses no P-glycoprotein, KB-8-5 expresses moderate levels of the protein, and KB-V1 expresses very high levels.

[3] = test system: KB-V1 cells; assay: MTS cytotoxicity test with KB-V1 cells (very high P-glycoprotein); format: cell-based, human; conditions: for IC50: Homo sapiens, KB-V1 cells, MTS; for Ratio VI/KB: IC50 on KB VI cells/IC50 on KB cells
Excerpt: as §1, §2, §3, §4, §6

[4] = test system: KB cells; assay: MTS cytotoxicity test with KB cells; format: cell-based; conditions: Homo sapiens; KB cells, MTS; read-out: IC50 KB
Excerpt: as §1, §2, §3, §4, §6

[5] = test system: S1 cells; assay: MTS cytotoxicity test with S1 cells; format: cell-based; conditions: Homo sapiens
Excerpt: as §1, §2, §3, §4
(§7) S1-M1 cells overexpress the MXR transporter which mediates resistance to some chemotherapeutics (Gottesman, M. M., Fojo, T., and Bates, S. E. Miltidrug resistance in cancer: role of ATP-dependent transporters. Nature Rev. Cancer, 2: 48-58, 2002). The IC50 values of representative examples of this invention, as well as reference compounds, on S1-M1 are compared to values on the sensitive parental S1 line.

[6] = test system: HL-60/ADR cells; assay: MTS cytotoxicity test with HL-60/ADR cells (MRP1); format: cell-based, human; conditions: for Ratio: IC50 on HL-60/ADR cells/IC50 on HL-60 cells
Excerpt: as §1, §2, §3, §4, §5

[7] = test system: S1-M1 cells; assay: MTS cytotoxicity test with S1-M1 cells (MXR); format: cell-based, human; conditions: for Ratio: IC50 on S1-M1 cells/IC50 on S1 cells
Excerpt: as §1, §2, §3, §4, §7

[8] = test system: DLD1 Human Colon Carcinoma; assay: Human tumor xenograft test, DLD1; format: in vivo; conditions: DLD1, 20 mg/kg intravenously on days 1, 5, 9, and 13
Protocol: (§8) The ability of compounds of this invention to inhibit tumor growth in animals is studied in the athymic mouse xenograft standard pharmacological test. Female nu/nu mice in an outbred albino background are obtained from Charles River Laboratories (Wilmington, Mass.). Animals are injected subcutaneously on the flank with the desired tumor cell suspension. Several days later, mice with tumors of approximately 150 mm^3 are selected from those injected (staged) and randomly distributed into groups of 5-10. The day of staging is called day 0. Compounds of the invention, usually formulated in saline (exceptions are noted in tables), are administered to animals by intravenous injection or oral gavage on various schedules starting on day 0 or 1, as noted in the tables. The control group in each experiment is dosed with vehicle on the same schedule. Tumor size is measured every 3-7 days with calipers in two orthogonal dimensions, and tumor volume is calculated from the formula volume=[(length×width^2)/2].
(§9) Tumor/Control (T/C) is obtained by dividing the mean tumor volume of the treated group by the mean tumor volume of the control group on each measurement day. A treatment dose is defined as active if it produced a statistically significant T/C of 0.50 or less. A p value≦0.05, determined by one-side Student's t-test, is required for statistical significance. A treatment dose is defined as toxic if more than 10% of the animals died from a compound-related toxicity.

[9] = test system: MAP-rich tubulin; assay: Tubulin polymerization test with MAP-rich tubulin; format: biochemical, bovine; conditions: 0.3 μM compound, 20 min, fold enhancement over control
Protocol: Medium is RPMI-1640 with L-glutamine, supplemented with 10% heat-inactivated fetal calf serum, 100 units/ml penicillin, and 100 μg/ml streptomycin (Gibco, Grand Island, N.Y.). Microtubule-associated protein (MAP)-rich tubulin, containing about 70% tubulin and 30% MAPs (#ML113), and highly purified tubulin (>99% pure, #TL238), both from bovine brain, are obtained from Cytoskeleton, Inc., Denver, Colo. PEM buffer (80 mM piperazine-N,N′-bis[2-ethanesulfonic acid], pH 6.9, 1 mM ethylene glycol-bis(β-aminoethyl ether)-N,N,N′,N′-tetraacetic acid, 1 mM magnesium chloride) and guanosine 5′-triphosphate (GTP) are also obtained from Cytoskeleton. [3H]paclitaxel, specific activity 14.7 Ci/mmol, is purchased from Moravek Biochemicals (Brea, Calif.). [^3H]vinblastine, specific activity 9.60 Ci/mmol and MicroSpin G-50 columns are obtained from Amersham Biosciences (Piscataway, N.J.). […] Other reagents are obtained from Sigma (St. Louis, Mo.).
Two variations of this procedure are done, one using MAP-rich tubulin and one using pure tubulin.
MAP-rich tubulin is dissolved in ice-cold PEM buffer containing 1 mM GTP (GPEM buffer) at a concentration of 1.3 mg/mL. The solution is centrifuged at top speed in an Eppendorf model 5415C microcentrifuge (Brinkmann Instruments, Westbury, N.Y.) for 10 min at […] immediately before use. The tubulin solution is added to wells of a ½-area 96-well plate (Costar No. 3696, Corning, Inc., Corning, N.Y.) already containing the compounds of interest. Each compound is tested in duplicate at a final concentration of 0.3 μM in a volume of 110 μL per well. The final DMSO concentration in all wells is 0.3%. Control reactions, which received compound solvent only, are done in quadruplicate. The plate is put in a SpectraMax Plus plate reader (Molecular Devices Corp. Sunnyvale, Calif.) thermostated at 24° and the absorbance of each well at 340 nm, a measure of the appearance of turbidity due to tubulin polymer formation, is determined every minute for 60 minutes. The absorbance at time 0 for each well is subtracted from each of the subsequent absorbance readings for that well, and then the duplicates are averaged.
In this assay, control reactions with MAP-rich tubulin show an S-shaped absorbance profile characterized by three phases: first, a lag phase during which no change in absorbance occurs; second, a polymerization phase in which absorbance increases; and third, a plateau phase in which absorbance has reached a maximum and little or no further change occurs. Polymerization enhancers such as paclitaxel and docetaxel shorten or eliminate the lag phase, increase the rate of the polymerization phase, and often increase the height of the plateau. […] The compounds of this invention have a taxane-like effect on the polymerization reaction. This has been expressed quantitatively in Table 5 by dividing the mean A340 of each sample at 20 min by the mean A340 of the control at 20 min to give a fold enhancement over control. […] Examples of this invention have factors ranging up to 8.1, with the majority in the 5 to 6-fold range.

[10] = test system: COLO 205 cells; assay: MTS cytotoxicity test with COLO 205 cells; format: cell-based, human; conditions: Homo sapiens, COLO 205, 72 h, 3 days
Procedure, shortened: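 COLO 205 human colon carcinoma cells, 1000 per well, exposed 3 days at 37° C to nine 2-fold dilutions, typical final top concentration 5 μM. MTS absorbance normalized to time-0 plate; IC50 is concentration giving colour yield midway between untreated and fully killed controls.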

[11] = test system: U87-MG Human Glioblastoma; assay: Human tumor xenograft test, U87-MG; format: in vivo, athymic mice; conditions: U87-MG, day 0, vehicle Klucel
Protocol: as §8, §9

## CC[C@@]1(O)C(=O)OCc2c1cc1n(c2=O)Cc2cc3ccccc3nc2-1 [Camptothecin, reference compound]
[1]
  IC50: 12 nM
[2]
  IC50: 33 nM
  Ratio 8.5/KB: 1.4
[3]
  IC50: 39 nM
  Ratio VI/KB: 1.6
[4]
  IC50: 24 nM
[5]
  IC50: 8.9 nM
[6]; Homo sapiens, HL60/ADR, HL-60/ADR cells, MTS, read-out: IC50 HL-60/ADR
  IC50: 17 nM
[6]
  Ratio: 1.4
[7]; Homo sapiens, S1-M1 cells, MTS, read-out: IC50 S1-M1
  IC50: 17 nM
[7]
  Ratio: 1.9

## COc1cccc2c1C(=O)c1c(O)c3c(c(O)c1C2=O)C[C@@](O)(C(=O)CO)C[C@@H]3O[C@H]1C[C@H](N)[C@H](O)[C@H](C)O1 [Doxorubicin, reference compound]
[1]
  IC50: 23 nM
[2]
  IC50: 70 nM
  Ratio 8.5/KB: 3.0
[3]
  IC50: > 3000 nM
  Ratio VI/KB: >130
[3]; listed as doxorubicin
  Ratio VI/KB: > 130
[4]
  IC50: 23 nM
[5]
  IC50: 34 nM
[6]
  Ratio: 93
[7]
  Ratio: 74

## CNCCCOc1cc(F)c(-c2c(Cl)nc3ncnn3c2N[C@@H](C)C(F)(F)F)c(F)c1 [Example 2, 5-Chloro-6-{2,6-difluoro-4-[3-(methylamino)propoxy]phenyl}-N-[(1S)-2,2,2-trifluoro-1-methylethyl][1,2,4]triazolo[1,5-a]pyrimidin-7-amine]
[8]
  tumor growth inhibition (activity call): active
[9]
  A340 Compound/A340 Control: 5.8
[10]
  IC50: 32 nM
[11]; 2.5 mg/kg PO
  T/C on day 0: 1.00
  T/C on day 4: 0.84
  T/C on day 8: 0.82
  T/C on day 11: 0.74*
  T/C on day 14: 0.74*
[11]; 5 mg/kg PO
  T/C on day 0: 1.02
  T/C on day 4: 0.71*
  T/C on day 8: 0.75*
  T/C on day 11: 0.65**
  T/C on day 14: 0.68**
[11]; 10 mg/kg PO
  T/C on day 0: 1.00
  T/C on day 4: 0.60**
  T/C on day 8: 0.51**
  T/C on day 11: 0.40**
  T/C on day 14: 0.41**
[11]; 20 mg/kg PO
  T/C on day 0: 0.97
  T/C on day 4: 0.59**
  T/C on day 8: 0.38**
  T/C on day 11: 0.28**
  T/C on day 14: 0.30**
[11]; 30 mg/kg PO
  T/C on day 0: 0.95
  T/C on day 4: 0.41**
  T/C on day 8: 0.24**
  T/C on day 11: 0.19**
  T/C on day 14: 0.23**
